Data published in patent publication US11013235B2 (priority 2015, dated 2021).
Read-outs that look alike come from different tables or passages of the source.

Tests used:
Format in all cases: in vivo
Rhizoctonia solani [1] = assay: Control of Rhizoctonia solani disease in tomato (Rs-SI); conditions: 1 μM spraying every 24 hours for one week, water control 96
Experimental: (§1) In order to compare the effect of the compounds of formula I to V on the control of diseases in different plants, experiments were conducted in tobacco, tomato and Arabidopsis thaliana plants inoculated with Phytophthora parasitica, Rhizoctonia solani, Alternaria solani, Nocardia sp and Botrytis cinerea, respectively. The compounds were applied by spraying, at a concentration of 1 μM, every 24 hours for one week. The plant mortality rate was determined for the disease produced by Phytophthora parasitica, Rhizoctonia solani and Nocardia sp, while the percentage of leaves with symptoms was determined for the infection by Alternaria solani. In the case of plants affected by Botrytis cinerea, the lesion diameter was measured. […] Each treatment included fifty plants. As control, plants treated with water were studied. The plants of each treatment were previously inoculated with the indicated pathogens, according to different inoculation protocols (Frontiers in Plant Science 3: 268, 1-6, 2012), and later they were treated with the compounds.

[2] = system: Candidatus 'Liberibacter asiaticus'; conditions: spraying every 15 days, 12 months after treatment, Citrus sinensis with HLB
Meloidogyne incognita = assay: Nematode control, nodules per plant: Meloidogyne incognita; conditions: 1 μM foliar application every 5 days, evaluation 35 days after, control 34
Experimental: (§2) The solutions of the compounds were prepared in ethanol and diluted in water, up to a concentration of 1 μM for a foliar application. Applications were conducted every 5 days, spraying only the leafs with each compound. Ten plants were used for each treatment and the final evaluation was performed 35 days after, by quantifying the number of nodules per plant.

Botrytis cinerea [3] = assay: Control of Botrytis cinerea disease in tobacco (Bc-Nt); conditions: 1 μM spraying every 24 hours for one week, water control 6.7
Experimental: as §1

Phytophthora parasitica = assay: Control of Phytophthora parasitica disease in tobacco (Pp-Nt); conditions: 1 μM spraying every 24 hours for one week, water control 91
Experimental: as §1

Rhizoctonia solani [4] = assay: Control of Rhizoctonia solani disease in tobacco (Rs-Nt); conditions: 1 μM spraying every 24 hours for one week, water control 87
Experimental: as §1

Nocardia sp = assay: Control of Nocardia sp disease in tobacco (N-Nt); conditions: 1 μM spraying every 24 hours for one week, water control 58
Experimental: as §1

Botrytis cinerea [5] = assay: Control of Botrytis cinerea disease in Arabidopsis (Bc-At); conditions: 1 μM spraying every 24 hours for one week, water control 8.7
Experimental: as §1

Alternaria solani = assay: Control of Alternaria solani disease in tomato (As-SI); conditions: 1 μM spraying every 24 hours for one week, water control 68
Experimental: as §1

Botrytis cinerea [6] = assay: Control of Botrytis cinerea disease in tomato (Bc-SI); conditions: 1 μM spraying every 24 hours for one week, water control 7.4
Experimental: as §1

Radopholus similis = assay: Nematode control, nodules per plant: Radopholus similis; conditions: 1 μM foliar application every 5 days, evaluation 35 days after, control 45
Experimental: as §2

Pratylenchus coffeae = assay: Nematode control, nodules per plant: Pratylenchus coffeae; conditions: 1 μM foliar application every 5 days, evaluation 35 days after, control 42
Experimental: as §2

SMILES | Rs-SI: percentage of mortality (Rhizoctonia solani [1]) | Titers of the bacterium ([2]; 0.001 μM) | Titers of the bacterium ([2]; 0.01 μM) | Titers of the bacterium ([2]; 1 μM) | Titers of the bacterium ([2]; 5 μM) | Titers of the bacterium ([2]; 10 μM) | Mi: number of nodules per plant (Meloidogyne incognita) | Bc-Nt: mean of the diameter of the lesion (Botrytis cinerea [3]) | Pp-Nt: percentage of mortality (Phytophthora parasitica) | Rs-Nt: percentage of mortality (Rhizoctonia solani [4]) | N-Nt: percentage of mortality (Nocardia sp) | Bc-At: mean of the diameter of the lesion (Botrytis cinerea [5]) | As-SI: percentage of leaves with the disease symptoms (Alternaria solani) | Bc-SI: mean of the diameter of the lesion (Botrytis cinerea [6]) | Rs: number of nodules per plant (Radopholus similis) | Pc: number of nodules per plant (Pratylenchus coffeae)
O=C(c1cnc(N2CCN(n3cccc3)CC2)nc1)N1CC2CC(O)C(O)CC2C1 (stereo not drawn) [IIIK, 2-({2-[4-(1H-pyrrol-1-yl)piperazin-1-yl]pyrimidin-5-yl}carbonyl)-octahydro-1H-isoindole-5,6-diol] | 2% | 635 copies per reaction | 0 copies per reaction | 3 copies per reaction | 65 copies per reaction | 8420 copies per reaction | 0 | 0.9 mm | 0% | 0% | 1% | 0.5 mm | 8% | 0.8 mm | 0 | 14
O=C(Cc1cc2c(oc1=O)C=CC1C(n3cccc3)=COC21)NCC(O)CO (stereo not drawn) [IIG, N-(2,3-dihydroxypropyl)-2-[11-oxo-5-(1H-pyrrol-1-yl)-3,10-dioxatricyclo[7.4.0.0^{2,6}]trideca-1(9),4,7,12-tetraen-12-yl]acetamide] | 1% | 658 copies per reaction | 0 copies per reaction | 3 copies per reaction | 68 copies per reaction | 4587 copies per reaction | 0 | 0.9 mm | 3% | 0% | 0% | 0.5 mm | 7% | 0.8 mm | 3 | 0
O=C(Cc1cc2c(oc1=O)C=CC1C(c3ccccc3)=COC21)NCC(O)CO (stereo not drawn) [IIB, N-(2,3-dihydroxypropyl)-2-{11-oxo-5-phenyl-3,10-dioxatricyclo[7.4.0.0^{2,6}]trideca-1(9),4,7,12-tetraen-12-yl}acetamide] | 2% | 432 copies per reaction | 17 copies per reaction | 2 copies per reaction | 43 copies per reaction | 8654 copies per reaction | 3 | 1.5 mm | 2% | 3% | 1% | 1.5 mm | 2% | 2.5 mm | 2 | 14
O=C(c1cnc(N2CCN(C3CCCC3)CC2)nc1)N1CC2CC(O)C(O)CC2C1 (stereo not drawn) [IIIG, 2-{[2-(4-cyclopentylpiperazin-1-yl)pyrimidin-5-yl]carbonyl}-octahydro-1H-isoindole-5,6-diol] | 1% | 756 copies per reaction | 12 copies per reaction | 5 copies per reaction | 76 copies per reaction | 9654 copies per reaction | 0 | 1.5 mm | 3% | 0% | 0% | 2.4 mm | 7% | 0.8 mm | 3 | 0
O=C(CCc1cc2cc3c(-c4ccc5ccccc5c4)coc3cc2oc1=O)NCC(O)CO (stereo not drawn) [IE, N-(2,3-dihydroxypropyl)-3-[6-(naphthalen-2-yl)-2-oxo-2H-furo[3,2-g]chromen-3-yl]propanamide] | 0% | 587 copies per reaction | 0 copies per reaction | 0 copies per reaction | 87 copies per reaction | 6574 copies per reaction | 0 | 1.5 mm | 0% | 0% | 0% | 2.4 mm | 7% | 0.8 mm | 0 | 0
Cc1coc2cc3oc(=O)c(CCC(=O)NCC(O)CO)cc3cc12 (stereo not drawn) [IA, N-(2,3-dihydroxypropyl)-3-{6-methyl-2-oxo-2H-furo[3,2-g]chromen-3-yl}propanamide] | 3% | 524 copies per reaction | 12 copies per reaction | 0 copies per reaction | 52 copies per reaction | 9652 copies per reaction | 23 | 0.3 mm | 1% | 2% | 1% | 1.2 mm | 1% | 0.8 mm | 12 | 18
